In patent US20220339143A1, “TAK-925 FOR USE IN TREATING NARCOLEPSY” (Takeda Pharmaceutical Company Limited, priority 2019, published 2022):

Assays:
Format in all cases: in vivo, human
patients with NT1 [1] = experiment: Number of cataplexy episodes (self-recorded sleep diary), multiple dose (Cohorts B1, B2); details: for Number of Cataplexy Episodes, Median / Number of Cataplexy Episodes, Mean: Treatment Period (Day 1-7 [until 24 hours after start of infusion])
Protocol: (§1) The purpose of the study was to evaluate the safety, tolerability, pharmacokinetics and pharmacodynamics of Compound A after multiple IV administration in patients with NT1. NT1 patients were evaluated in Cohort B1 and B2 (Table 19). Compound A or placebo were administered via IV infusion over 9 hours once daily for 7 days. A total of 13 patients with NT1 were treated with Compound A or placebo (4, 4, and 5 subjects in the placebo, Compound A 11 mg, and Compound A 44 mg groups, respectively). In this part, potential efficacy of Compound A was evaluated with MWT, ESS, KSS, night-time PSG (NPSG), cataplexy frequency assessment, and PGI-C as an exploratory PD assessment.
(§2) An overview of study schedule and PD testing in NT1 Patients is illustrated in FIG. 11. After screening, patients eligible for these parts had to discontinue any medication for narcolepsy including medications used for EDS or cataplexy. The medications had to be stopped for a minimum of 7 days or at least 5 half-lives of each medication, whichever was longer, before the first day of dosing (Day 1). As for a subject having possibility of getting injured due to severe cataplexy, the subject might have been confined to the site before Day −2 at a discretion of the investigator. In all cohorts of these parts, subjects underwent NPSG on Day −2 and baseline MWT sessions 4 times on Day −1 (at around 10:00, 12:00, 14:00, and 16:00). Study drug dosing via IV infusion was started at around 08:00. MWT was conducted on Day 1 at around 10:00, 12:00, 14:00, and 16:00. Subjects were allowed to take a nap on the days with no MWT assessment. At night of Day 6, the subjects underwent NPSG once again to evaluate the effect of multiple daytime dosing on night-time sleep structure. On Day 7, the subjects underwent MWT at the same hours as on Day −1. Cataplexy was to be evaluated by using the self-recorded sleep diary. The subjects were discharged from the study site on Day 8.

patients with NT1 [2] = experiment: Epworth Sleepiness Scale (ESS), multiple dose (Cohorts B1, B2); details: for ESS Change from Baseline, Median / ESS Observed Value, Median: Day 7; for ESS Observed Value, Mean: Day 7 (placebo 16.3); for ESS Change from Baseline, Mean: Day 7 (placebo −0.3)
Protocol: as §1

[3] = Single dose PK in healthy elderly subjects (Cohort 3), plasma
Protocol: This study investigates (i) the safety and tolerability of Compound A (methyl (2R,3S)-3-((methylsulfonyl)amino)-2-(((cis-4-phenylcyclohexyl)oxy)methyl)piperidine-1-carboxylate) when a single dose given as a 9 hour continuous IV infusion is administered to healthy adults, healthy elderly subjects and patients with narcolepsy type 1 (NT1); (ii) the pharmacokinetics of Compound A when a single dose given as a 9 hour continuous IV infusion is administered to healthy adults, healthy elderly subjects and patients with narcolepsy type 1; and (iii) the pharmacodynamics (PD) effects of Compound A, primarily by evaluation of the sleep latency on MWT when a single dose given as a 9 hour continuous IV infusion is administered to patients with narcolepsy type 1.
Pharmacokinetics: Concentrations of Compound A in plasma, and CSF, and pharmacokinetics parameters.

patients with NT1 [4] = experiment: Safety and tolerability of multiple IV administration in patients with NT1
Protocol: as §1

patients with NT1 [5] = experiment: Sleep latency in MWT, multiple dose (Cohorts B1, B2)
Protocol: as §1, §2
The MWT is a validated objective measure that evaluates a person's ability to remain awake under soporific conditions for a defined period of time. As there is no biological measure of wakefulness, this was measured indirectly by the inability or delayed tendency to fall asleep. This tendency to fall asleep was measured via EEG-derived sleep latency in MWT.
On Day −1, Day 1 and Day 7, 40-minute session (1 session) of MWTs was performed 4 times (approximately at 10:00, 12:00, 14:00, and 16:00) per day. Sleep latency of each session was recorded. Subjects were required to stay awake during an interval between sessions.

COC(=O)N1CCC[C@H](NS(C)(=O)=O)[C@@H]1CO[C@H]1CC[C@@H](c2ccccc2)CC1 [Compound A, methyl (2R,3S)-3-((methylsulfonyl)amino)-2-(((cis-4-phenylcyclohexyl)oxy)methyl)piperidine-1-carboxylate]
Number of Cataplexy Episodes (Time-matched), Median (patients with NT1 [1]; 11 mg, Day 1-7 (after infusion time up to 24 hours after start of infusion)): 1.0 | Number of Cataplexy Episodes (Time-matched), Mean (patients with NT1 [1]; 11 mg, Day 1-7 (after infusion time up to 24 hours after start of infusion), time-matched baseline 5.8): 3.0 | Number of Cataplexy Episodes (Time-matched), Median (patients with NT1 [1]; 11 mg, Day 1-7 (during infusion time)): 0.0 | Number of Cataplexy Episodes (Time-matched), Mean (patients with NT1 [1]; 11 mg, Day 1-7 (during infusion time), time-matched baseline 5.8): 0 | Number of Cataplexy Episodes (Time-matched), Mean (patients with NT1 [1]; 11 mg, Day 1-7 (during infusion time), time-matched baseline 5.8, listed as Cmpd A): 0.0 | Number of Cataplexy Episodes, Median (patients with NT1 [1]; 11 mg): 1.0 | Number of Cataplexy Episodes, Mean (patients with NT1 [1]; 11 mg, baseline 11.5): 3.0 | Number of Cataplexy Episodes (Time-matched), Median (patients with NT1 [1]; 44 mg, Day 1-7 (after infusion time up to 24 hours after start of infusion)): 1.0 | Number of Cataplexy Episodes (Time-matched), Mean (patients with NT1 [1]; 44 mg, Day 1-7 (after infusion time up to 24 hours after start of infusion), time-matched baseline 0.4): 1.4 | Number of Cataplexy Episodes (Time-matched), Median (patients with NT1 [1]; 44 mg, Day 1-7 (during infusion time)): 0.0 | Number of Cataplexy Episodes (Time-matched), Mean (patients with NT1 [1]; 44 mg, Day 1-7 (during infusion time), time-matched baseline 3.2): 0 | Number of Cataplexy Episodes (Time-matched), Mean (patients with NT1 [1]; 44 mg, Day 1-7 (during infusion time), time-matched baseline 3.2, listed as Cmpd A): 0.0 | Number of Cataplexy Episodes, Median (patients with NT1 [1]; 44 mg): 1.0 | Number of Cataplexy Episodes, Mean (patients with NT1 [1]; 44 mg, baseline 3.6): 1.4 | ESS Change from Baseline, Median (patients with NT1 [2]; 11 mg): −9.5 | ESS Observed Value, Median (patients with NT1 [2]; 11 mg): 8.5 | ESS Observed Value, Mean (patients with NT1 [2]; 11 mg): 9.8 | ESS Change from Baseline, Mean (patients with NT1 [2]; 11 mg): −8.3 | ESS Change from Baseline, Median (patients with NT1 [2]; 44 mg): −18.0 | ESS Observed Value, Median (patients with NT1 [2]; 44 mg): 0.0 | ESS Observed Value, Mean (patients with NT1 [2]; 44 mg): 0.0 | ESS Change from Baseline, Mean (patients with NT1 [2]; 44 mg): −18.6 | reduction in clearance compared to younger healthy subjects [3]: 20% | BP and PR increases vs plasma exposure (patients with NT1 [4]; NT1 patient populations): A trend for the observed BP and PR increases with increasing Compound A plasma exposure was observed | safety and tolerability (patients with NT1 [4]; multiple IV administrations of up to 44 mg, 9 h infusion once daily for 7 days, NT1): safe and well tolerated | SAE and TEAE leading to study drug discontinuation (patients with NT1 [4]; multiple IV administrations of up to 44 mg, NT1): There was no SAE, and no TEAE leading to study drug discontinuation | mean sleep latency in MWT (patients with NT1 [5]; 11 mg, Day 1 (placebo 1.31)): 37.16 min | mean change from baseline in average sleep latency in MWT (patients with NT1 [5]; 11 mg, Day 1 (placebo −0.66)): 35.13 min | mean sleep latency in MWT (patients with NT1 [5]; 11 mg, Day 7 (placebo 1.59)): 23.03 min | mean change from baseline in average sleep latency in MWT (patients with NT1 [5]; 11 mg, Day 7 (placebo −0.38)): 21.00 min | maximum sleep latency achieved in MWT (patients with NT1 [5]; 11 mg, at 4 hours on Day 1): 40 min | mean sleep latency in MWT (patients with NT1 [5]; 44 mg, Day 1 (placebo 1.31)): 40.00 min | mean change from baseline in average sleep latency in MWT (patients with NT1 [5]; 44 mg, Day 1 (placebo −0.66)): 34.19 min | mean sleep latency in MWT (patients with NT1 [5]; 44 mg, Day 7 (placebo 1.59)): 40.00 min | mean change from baseline in average sleep latency in MWT (patients with NT1 [5]; 44 mg, Day 7 (placebo −0.38)): 34.78 min | maximum sleep latency achieved in MWT (patients with NT1 [5]; 44 mg, all time points on both Day 1 and Day 7): 40 min
